One data set deals with Muscarine-M1 (Homo sapiens, UniProt P11229). In words: Receptor binding Muscarine-M1. The note with it: radioligand [3H]-pirenzepine, read-out: Ki(nM) Compound 1. How it is done:
(§1) Receptor binding data were obtained by CEREP (128, rue Danton, 92500 Rueil-Malmaison, France) or at Solvay Pharmaceuticals B.V., using well documented standard procedures. Affinity for 5-HT1A receptors for instance, was determined by testing the ability of the compounds of the invention to displace [^3H]-2-(di-n-propylamino)-8-hydroxytetralin ([^3H]-8-OH-DPAT) from its specific binding sites in rat frontal cortex homogenates. This test is based on the method described by Gozlan et al. (Nature, 305, (1983), pages 140-142).
(§2) The binding data collected in the table below were either obtained by CEREP (128, rue Danton, 92500 Rueil-Malmaison, France) or at Solvay Pharmaceuticals B.V., using well documented standard procedures.

Another data set deals with GDNF. The experiment in a line: Induction of growth factors: GDNF RNA in brain areas by quantitative PCR. The data set is classed as in vivo. To be noted: 3 mg/kg p.o. once daily, 3 weeks. How it is done: Compounds of the invention (3 mg/kg, p.o.) or vehicle are administered once daily during a period of 3 weeks (n=8 animals per treatment group). 24 hours after the last dose the animals are sacrificed (using CO2/O2 anesthesia), the brains are removed and the dissected. RNA is extracted from the individual brain samples and induction of the growth factors BDNF and GDNF is determined by quantitative PCR. Total RNA is isolated with the Trizol method (Invitrogen) from the brain pieces. cDNA is made starting with 2 μg of total RNA (pretreated for 30 min with DNAse (Ambion) in first strand buffer) using the reverse transcriptase Superscript II (Invitrogen). Quantification of […] by real time PCR makes use of the observation that the early cycles of PCR are characterized by an exponential increase in target amplification. The accumulation of PCR product is measured using Sybergreen II. Primers are designed using the software package Primer Express (Applied Biosystems). Expression levels of the housekeeping genes ornithine decarboxylase (ODC_ex8) and alpha tubulin (TUBA) used for normalization and as control for good cDNA synthesis.

A further data set addresses cannabinoid-CB1 (Homo sapiens, UniProt P21554). In words: Receptor binding cannabinoid-CB1. To be noted: radioligand [3H]-WIN 55,212-2, read-out: Ki(nM) Compound 1. How it is done: as §1, §2
The next data set has as its target NAreuptake (Homo sapiens, UniProt P23975). The experiment in a line: Binding NA reuptake. To be noted: radioligand [3H]-nisoxetin, read-out: Ki(nM) Compound 1. As to the method:
as §1, §2

The test system of another data set is DBA/2 mice. In words: Anticonvulsant activity: audiogenic seizures in DBA/2 mice. The data set is classed as in vivo. The note with it: for ED50: Mus musculus; for behavioural changes: all dosages tested. The source says: DBA/2 mice weighing 6-12 g (22-26 days old; either sex, Harlan Italy Correzzana, Milano, Italy) are housed in groups of 8-10 under a 12-h light/dark cycle (lights on at 7:00 a.m.) with food and water available ad libitum. The experimental protocol is approved by University of Catanzaro Ethical Committee. All procedures are in compliance with the Nationals Institutes of Health Guide for Care and Use of Laboratory Animals (Publication No. 85-23, revised 1985) and European Communities Council Directive of 24 Nov. 1986 (86/609 EEC).
The experiments are performed according to the method previously described by De Sarro et al. (1984), Eur. J. Pharmacol., 104, 55-60. Compounds of the invention or vehicle (controls) are given intraperitoneally (i.p.) and orally (p.o.) as freshly sonicated solutions in methylcellulose 1%. For the […]; pretreatment time at 30 and 60 min., For oral treatment, all animals are pretreated either at 30 or 60 min using the compounds of the invention at doses of 0.1, 0.3, 3, 6 and 10 mg/kg p.o. At least 10 mice per dose are used. After pretreatment time, each mouse is placed under a hemispheric perspex dome (58 cm in diameter) and 1 min is allowed for habituation and assessment of locomotor activity. Animals are challenged with a 12-16 kHz sinusoidal tone at 109 dB. Seizure response is assessed by two independent observers. The sound evoked behaviour is coded using the following scale: 0=no response, 1=wild running, 2=clonus, 3=tonic flexor and/or extensor; 4=respiratory arrest, on the basis of the concordant opinion of the observers. […] The maximum response is recorded for each animal. Rectal temperature is recorded immediately prior to auditory testing using an Elektrolaboratoriet thermometer type T.E.3. Behavioral changes are observed during the period between drug administration and auditory testing. In these experiments separate vehicle-treated and drug-treated groups are used at each pretreatment time (15 min-60 min). Percentage of mice showing wild running, clonic or tonic phase and the duration of anticonvulsant activity are compared to control group and statistically analyzed.
Statistical comparison between groups of control and drug-treated DBA/2 mice is made using Fisher's exact probability test (incidence of the seizure phases). The percentage incidence of each phase of the audiogenic seizure is determined for each drug. These values are plotted against the corresponding doses by a computer construction of the dose-effect curves for calculation of ED50 (with 95% confidence limits). The ED50 values for each compound are calculated using a computer program of the method of Litchfield and Wilcoxon (1949). At least 32 animals are used to calculate each ED50 value.
For systemic injections and oral administrations, all compounds are given intraperitoneally (0.1 ml/10 g of body weight of the mouse) as a freshly prepared solution in methylcellulose 1%. In order to avoid the light sensitivity, weighing and handling are carried out under sodium vapor lamps and the substances are protected from light during the experiments.

Another data set deals with 5-HT1A (Homo sapiens, UniProt P08908). In words: Receptor binding 5-HT1A. To be noted: radioligand [3H]-8-OH-DPAT, read-out: Ki(nM) Compound 1.
5-HT1A, sequence (P08908 whole entry): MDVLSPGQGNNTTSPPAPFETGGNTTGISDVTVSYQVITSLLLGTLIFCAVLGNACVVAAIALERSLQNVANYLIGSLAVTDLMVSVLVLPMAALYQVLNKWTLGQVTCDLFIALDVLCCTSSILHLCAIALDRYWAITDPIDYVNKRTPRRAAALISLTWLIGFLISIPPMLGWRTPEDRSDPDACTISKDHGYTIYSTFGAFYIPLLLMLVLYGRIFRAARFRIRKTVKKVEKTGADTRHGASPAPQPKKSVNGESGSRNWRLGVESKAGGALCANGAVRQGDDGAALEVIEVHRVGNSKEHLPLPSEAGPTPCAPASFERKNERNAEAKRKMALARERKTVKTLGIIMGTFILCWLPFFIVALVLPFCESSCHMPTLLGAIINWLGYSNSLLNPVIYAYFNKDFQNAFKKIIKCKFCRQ
A further data set concerns the target α1B-adrenergic (Rattus norvegicus, UniProt P15823). In words: Receptor binding α1B-adrenergic. To be noted: radioligand [3H]-prazosin, read-out: Ki(nM) Compound 1. How it is done:
as §1, §2

A further data set has as its target Prostaglandin-I2 (Homo sapiens, UniProt P43119). In words: Receptor binding Prostaglandin-I2. To be noted: radioligand [3H]-iloprost, read-out: Ki(nM) Compound 1. As to the method: as §1, §2
For another data set, the target named is Neurokinin-NK3 (Homo sapiens, UniProt P29371). The experiment in a line: Receptor binding Neurokinin-NK3. To be noted: radioligand [3H]-SR 142801, read-out: Ki(nM) Compound 1. As to the method: as §1, §2
Neurokinin-NK3, sequence (P29371 whole entry): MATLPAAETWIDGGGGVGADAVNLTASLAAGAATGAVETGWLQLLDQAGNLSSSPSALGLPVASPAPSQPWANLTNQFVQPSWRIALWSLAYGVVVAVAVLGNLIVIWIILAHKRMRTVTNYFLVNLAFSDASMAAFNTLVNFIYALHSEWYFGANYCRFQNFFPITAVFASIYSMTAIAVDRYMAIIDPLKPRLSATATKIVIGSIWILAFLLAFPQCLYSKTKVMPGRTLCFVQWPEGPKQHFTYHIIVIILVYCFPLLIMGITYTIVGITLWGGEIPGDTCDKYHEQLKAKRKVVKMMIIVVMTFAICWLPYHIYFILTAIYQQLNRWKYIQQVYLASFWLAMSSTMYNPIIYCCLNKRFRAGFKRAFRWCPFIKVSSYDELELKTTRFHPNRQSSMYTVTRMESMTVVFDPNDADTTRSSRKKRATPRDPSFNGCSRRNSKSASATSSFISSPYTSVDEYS

Structures are written as SMILES. Read-outs that look alike come from different tables or passages of the source.

A word on the Ki: it is the dissociation constant of the complex between target and ligand, obtained from inhibition or displacement.

Muscarine-M1, sequence (P11229 whole entry): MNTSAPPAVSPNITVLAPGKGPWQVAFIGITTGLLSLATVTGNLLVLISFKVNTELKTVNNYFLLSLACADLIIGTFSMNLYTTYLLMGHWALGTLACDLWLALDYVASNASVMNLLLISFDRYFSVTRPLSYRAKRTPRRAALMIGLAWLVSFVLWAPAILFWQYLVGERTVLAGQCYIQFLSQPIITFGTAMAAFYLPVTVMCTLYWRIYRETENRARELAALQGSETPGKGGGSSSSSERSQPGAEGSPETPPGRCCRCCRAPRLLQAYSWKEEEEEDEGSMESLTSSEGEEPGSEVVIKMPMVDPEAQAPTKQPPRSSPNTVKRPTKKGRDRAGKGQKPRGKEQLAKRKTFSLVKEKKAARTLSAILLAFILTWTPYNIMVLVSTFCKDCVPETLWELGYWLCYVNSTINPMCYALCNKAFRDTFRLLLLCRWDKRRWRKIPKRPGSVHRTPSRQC
NAreuptake, sequence (P23975 whole entry): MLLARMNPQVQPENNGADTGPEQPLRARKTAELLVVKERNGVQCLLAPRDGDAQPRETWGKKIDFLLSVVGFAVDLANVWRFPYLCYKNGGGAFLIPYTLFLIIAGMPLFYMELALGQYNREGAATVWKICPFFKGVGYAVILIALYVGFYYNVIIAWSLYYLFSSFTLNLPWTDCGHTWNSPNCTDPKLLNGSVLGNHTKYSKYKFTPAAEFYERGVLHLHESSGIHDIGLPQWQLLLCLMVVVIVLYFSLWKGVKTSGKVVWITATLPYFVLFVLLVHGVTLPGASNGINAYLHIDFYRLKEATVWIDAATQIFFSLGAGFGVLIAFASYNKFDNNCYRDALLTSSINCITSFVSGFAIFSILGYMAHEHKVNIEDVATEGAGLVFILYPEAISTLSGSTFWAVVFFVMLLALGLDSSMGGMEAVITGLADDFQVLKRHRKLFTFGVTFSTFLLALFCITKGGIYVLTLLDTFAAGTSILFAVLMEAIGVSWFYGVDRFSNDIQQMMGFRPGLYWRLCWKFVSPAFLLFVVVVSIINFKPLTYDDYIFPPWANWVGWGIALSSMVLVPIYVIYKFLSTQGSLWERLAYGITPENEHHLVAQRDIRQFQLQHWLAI
cannabinoid-CB1, sequence (P21554 whole entry): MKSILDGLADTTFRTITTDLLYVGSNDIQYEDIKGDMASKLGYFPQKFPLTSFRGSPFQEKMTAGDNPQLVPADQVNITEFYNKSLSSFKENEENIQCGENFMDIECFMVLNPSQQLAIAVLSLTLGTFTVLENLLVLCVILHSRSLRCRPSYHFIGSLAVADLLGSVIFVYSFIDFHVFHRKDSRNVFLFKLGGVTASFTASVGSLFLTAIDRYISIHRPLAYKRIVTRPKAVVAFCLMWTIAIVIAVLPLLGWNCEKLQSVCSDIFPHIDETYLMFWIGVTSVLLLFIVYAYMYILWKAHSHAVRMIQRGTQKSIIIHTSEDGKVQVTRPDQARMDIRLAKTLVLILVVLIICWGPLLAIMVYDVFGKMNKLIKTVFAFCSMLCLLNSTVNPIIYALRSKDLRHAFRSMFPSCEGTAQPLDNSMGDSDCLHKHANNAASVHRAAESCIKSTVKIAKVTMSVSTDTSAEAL
α1B-adrenergic, sequence (P15823 whole entry): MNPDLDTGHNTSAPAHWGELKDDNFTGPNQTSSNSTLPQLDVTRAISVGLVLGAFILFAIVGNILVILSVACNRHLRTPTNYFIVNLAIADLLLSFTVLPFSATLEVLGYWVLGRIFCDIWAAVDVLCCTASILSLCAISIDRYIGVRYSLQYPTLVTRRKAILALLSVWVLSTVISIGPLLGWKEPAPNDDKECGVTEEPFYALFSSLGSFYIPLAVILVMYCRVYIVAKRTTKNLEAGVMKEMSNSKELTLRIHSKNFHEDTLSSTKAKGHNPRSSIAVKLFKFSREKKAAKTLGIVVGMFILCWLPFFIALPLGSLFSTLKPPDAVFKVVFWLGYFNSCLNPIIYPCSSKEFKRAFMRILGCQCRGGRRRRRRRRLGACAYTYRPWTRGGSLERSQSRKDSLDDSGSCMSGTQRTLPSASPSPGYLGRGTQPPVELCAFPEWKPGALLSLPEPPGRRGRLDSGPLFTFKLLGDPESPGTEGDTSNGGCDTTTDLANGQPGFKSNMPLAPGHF
Prostaglandin-I2, sequence (P43119 whole entry): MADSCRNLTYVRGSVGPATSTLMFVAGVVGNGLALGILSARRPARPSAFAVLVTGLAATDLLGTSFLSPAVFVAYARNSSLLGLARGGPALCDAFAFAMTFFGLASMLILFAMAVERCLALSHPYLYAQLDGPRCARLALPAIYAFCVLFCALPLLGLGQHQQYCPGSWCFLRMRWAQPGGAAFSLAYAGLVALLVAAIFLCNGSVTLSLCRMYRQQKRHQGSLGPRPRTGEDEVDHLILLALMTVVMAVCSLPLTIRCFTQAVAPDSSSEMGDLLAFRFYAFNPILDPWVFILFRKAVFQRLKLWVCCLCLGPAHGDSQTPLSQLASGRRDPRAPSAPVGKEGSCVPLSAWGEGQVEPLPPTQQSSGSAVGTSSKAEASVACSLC

`Nc1cc2cccc(N3CCNCC3)c2oc1=O` [Compound 1, 3-amino-8-(1-piperazinyl)-2H-1-benzopyran-2-one]: the Ki on Muscarine-M1 was more than 1000 nM; at cannabinoid-CB1 it was more than 10000 nM; on NAreuptake, more than 1000 nM; on 5-HT1A, 0.25 nM; on α1B-adrenergic, more than 1000 nM; on Prostaglandin-I2, more than 1000 nM. Further, on Neurokinin-NK3, the Ki was more than 1000 nM. The “GDNF RNA, fold increase compared to vehicle treatment” value in the data set with GDNF (hippocampus) was 1.7 fold; in the data set on GDNF (nucleus accumbens), 1.5 fold; in the data set on GDNF (prefrontal cortex), 1.3 fold; with GDNF (striatum) it was 2.2 fold; in the data set on GDNF (thalamus), 2.6 fold. Also, the ED50 worked out at 0.66 mg/kg with DBA/2 mice (ip, 0.5 h, read-out: ED50 Tonic extension, i.p. administration, 30 minutes after drug administration); 3.7 mg/kg with DBA/2 mice (ip, 0.5 h, i.p. administration, 30 minutes after drug administration, read-out: ED50 Clonic seizures); 39 mg/kg in the data set on DBA/2 mice (ip, 0.5 h, i.p. administration, 30 minutes after drug administration, read-out: ED50 Wild running); 1.9 mg/kg in the data set on DBA/2 mice (ip, 1 h, i.p. administration, 60 minutes after drug administration, read-out: ED50 Clonic seizures); 0.26 mg/kg with DBA/2 mice (ip, 1 h, i.p. administration, 60 minutes after drug administration, read-out: ED50 Tonic extension); 20.5 mg/kg in the data set on DBA/2 mice (ip, 1 h, i.p. administration, 60 minutes after drug administration, read-out: ED50 Wild running). Also, the ED50 in the data set with DBA/2 mice (po, 0.5 h, p.o. administration, 30 minutes after drug administration, read-out: ED50 Clonic seizures) was 4.91 mg/kg; in the data set on DBA/2 mice (po, 0.5 h, read-out: ED50 Tonic extension, p.o. administration, 30 minutes after drug administration), 1.19 mg/kg; with DBA/2 mice (po, 1 h, p.o. administration, 60 minutes after drug administration, read-out: ED50 Clonic seizures) it was 1.34 mg/kg; with DBA/2 mice (po, 1 h, p.o. administration, 60 minutes after drug administration, read-out: ED50 Tonic extension), 0.27 mg/kg. For the same compound, the behavioural changes entry in the data set on DBA/2 mice (i.p. administration) and with DBA/2 mice (oral administration) was “At none of the dosages tested” throughout.

These data come from US20050215551A1, “1-[2H-1-benzopyran-2-one-8-yl]- piperazine derivatives for the treatment of movement disorders” (SOLVAY PHARMACEUTICALS B.V., priority 2004, published 2005).
